Laboratory results as given in publication PMC5392419 (Pharmacological research, 2017).

Assays:
[1] = biological target: T1, ATP-binding cassette subfamily G member 2 (ABCG2) (Homo sapiens, UniProt Q9UNQ0); test: [3H]-mitoxantrone accumulation and efflux assay in ABCG2-overexpressing cells; format: cell-based
T1 sequence (Q9UNQ0 1-655): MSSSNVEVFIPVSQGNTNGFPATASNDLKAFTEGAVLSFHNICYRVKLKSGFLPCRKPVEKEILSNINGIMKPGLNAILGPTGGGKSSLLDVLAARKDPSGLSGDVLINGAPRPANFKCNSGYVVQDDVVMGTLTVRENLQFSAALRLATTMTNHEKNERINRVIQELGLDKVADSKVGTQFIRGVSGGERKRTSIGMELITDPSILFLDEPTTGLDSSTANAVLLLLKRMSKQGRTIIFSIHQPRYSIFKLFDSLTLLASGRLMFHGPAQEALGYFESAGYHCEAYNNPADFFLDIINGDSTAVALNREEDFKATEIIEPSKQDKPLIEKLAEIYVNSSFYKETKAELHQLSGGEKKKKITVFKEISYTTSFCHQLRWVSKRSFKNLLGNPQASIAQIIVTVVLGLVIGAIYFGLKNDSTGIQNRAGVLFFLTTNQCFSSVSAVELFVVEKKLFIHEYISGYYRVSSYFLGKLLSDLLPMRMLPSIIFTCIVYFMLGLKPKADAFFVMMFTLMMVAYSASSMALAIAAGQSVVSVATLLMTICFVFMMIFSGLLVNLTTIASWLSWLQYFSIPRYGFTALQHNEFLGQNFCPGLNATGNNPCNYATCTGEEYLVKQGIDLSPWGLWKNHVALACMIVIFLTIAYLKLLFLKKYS

[2] = biological target: T1, ATP-binding cassette subfamily G member 2 (ABCG2); test: biochemical

SMILES	[3H]-mitoxantrone accumulation and efflux assay in ABCG2-overexpressing cells (1) [1]	EC50 [2] [nM]
COc1ccc2c3c([nH]c2c1)[C@H](C=C(C)C)N1C(=O)[C@@H]2CCCN2C(=O)[C@@H]1C3 [Fumitremorgin C]	efficacy of cabozantinib on increasing intracellular accumulation of [^3H]-MX in resistant cell line is comparable to that of FTC	
COc1cc2nccc(Oc3ccc(NC(=O)C4(C(=O)Nc5ccc(F)cc5)CC4)cc3)c2cc1OC [cabozantinib]		734
